According to paper PMC3747139 (PLoS ONE, 2013):
Like-named read-outs stand apart in the source and are kept apart here.

What was measured:
B16F10 melanoma cells = test: Preclinical study: survival of tumor-induced mice; type: in vivo, C57BL6/J mice; conditions: 200 µM L1, 125 µM L2, 50 µM L3 on alternate days for 2 weeks
Procedure: C57BL6/J mice were used from the animal house facility located at CCMB (Hyderabad, India). All animal experimental studies were carried out in strict accordance with the recommendations in the guide for the care and use of laboratory animals of Centre for Cellular and Molecular Biology (CCMB). All the animal experimental protocols were approved by the Institutional Animal Ethical Committee (IAEC) of Centre for Cellular and Molecular Biology (CCMB with Permit number: CPCSEA 20/1999, Ministry of Environment and Forest, Government of India).The protocol was approved by the Institutional Animal Ethical Committee (IAEC) of CCMB (Protocol number: IAEC 16/2012). All the surgery was performed under sodium pentobarbital anaesthesia, and all efforts were made to minimize suffering. C57BL6/J mice, 6–8 weeks old, were subcutaneously injected with 2×10^5 B16F10 melanoma cells, in the […] region. After the tumor attained a size of 500–1000 mm^3 (≈9 days following cancer cell implantation), mice were grouped and treated as follows.
Group (i) was treated with vehicle control (4 mice), group (ii) with 200 µM of L1 (4 mice), group (iii) with 125 µM of L2 (4 mice) and group (iv) with 50 µM of L3 (4 mice). These experiments were repeated thrice and mean values were considered. Size of tumor was measured every day at a fixed time. The tumor sizes were calculated using the formula (0.5 ab^2), where ‘a’ was the largest dimension and ‘b’ was the smallest dimension of the tumor. The experiment was terminated when the average tumor volume of the control/treated group was 10000–12000 mm^3.

HQF DNA d(TTAGGG)4 = test: Isothermal titration calorimetry; type: binding, human; conditions: ITC; for K1 x 10^-7 / K2 x 10^-5: two-sites model, 100 mM KBPES pH 7.0; for K1 x 10^-7: mode-1, 25°C; for K2 x 10^-5: mode-2, 25°C; for Kd: quadruplex DNA, read-out: Kd, higher affinity interaction (mode-1)
Procedure: When quadruplex DNA melts to form ssDNA structure, SG fluorescence intensity gradually reduces as SG has no binding to ssDNA. Each time, 5 µM of HQF DNA [d(T2AG3)4)], 5 µM of dsDNA (prepared by mixing equal concentration of poly-dA-dT and poly-dT-dA), 5 µM ssDNA ( poly dT alone) and 1 µM of each ligand was incubated at 4°C for 16 h, and used for melting studies. […] Affinity, stoichiometry and thermodynamic parameters for quadruplex-ligand complex were studied with 60 µM of ligand and 10 µM of HQF DNA using Microcal VP-ITC (Northampton, MA, USA). Ligand addition to G-quadruplex DNA was made every 180 seconds. Titration experiments were performed thrice and blank correction was made each time to minimize error.
On integrating the heats produced per injection, with respect to time and conversion to per mole basis, the binding isotherm (Figure 8A) corresponding to each ligand was obtained. […] After making blank correction, the heat data was fitted with “two-independent sites” model and analyzed using Origin 7.1 to calculate thermodynamic parameters.

B16F10 cells [1] = test: MTT assay; type: cell-based, human; conditions: Mus musculus, B16-F10, B16F10 cells, 24 h and 48 h, read-out: half maximal inhibitory concentration (IC50)
Procedure: Normal human cell lines (CRL-2115, CRL-2120) as well as human cancer cell lines (NCM-460, He La, MCF-7, B16F10 and A549) were cultured according to the supplier's recommendations. To study the cytotoxicity of the ligands, after 80% confluence, cells were trypsinized with 0.1% trypsin-EDTA and harvested by centrifugation at 500× g. Serial dilutions of cells were made from 1×10^6 to 1×10^3 cells per ml. The cells were seeded in triplicate in a 96 well plate. The suspended cells were treated with 50 µM, 100 µM, 150 µM, 200 µM, 250 µM and 300 µM of each ligand, at two different time points (24 h and 48 h). Normal as well as tumor cells to which no ligand was added served as control. After incubation, MTT (100 µl, 5 mg mL^−1) solution was added to each well and the cell viability was determined by measuring the ability of cells to transform MTT to a purple coloured formazan dye. The absorbance of samples at 570 nm was measured using a UV-Visible spectrophotometer. Percentage of viable cells was calculated using the formula given below. [drawing 1] Where the OD570 (sample) corresponds to absorbance obtained from the wells treated with ligands and the OD570 (control) represents the absorbance from the wells in which no ligand was added.

B16F10 cells [2] = test: Flow cytometry Annexin V / PI dot plot; type: cell-based, human; conditions: 200 µM L1, 125 µM L2, 50 µM L3, 3 h
Procedure: Since MTT and cell culture assays yielded encouraging results with B16F10 cells they were used for confocal and flow cytometry experiments. After 90% confluence, the cells were treated with 200 µM, 125 µM and 50 µM of L1, L2, L3 respectively, for 3 h. 1×10^6 cells were washed with 2× binding buffer and resuspended in 100 µl binding buffer and Annexin-V-FITC (1.0 µg). The cells were then incubated at room temperature for 10 min, followed by the addition of 400 µl of binding buffer containing 1 µl of Propidium Iodide (PI). Stained cells were analyzed using FACS Calibur Flow Cytometer from B.D. Biosceinces (USA). Annexin-V-FITC and PI labelled cells were excited using 488 nm solid-state laser and fluorescence emission intensity was captured using 530/30 and 585/42 band pass filters respectively.

[3] = Cell count assay (trypan blue); type: cell-based; design: concentration or dose not given beside the values; conditions: human; for viability at 24 h: read-out: Number of viable cells after 24 h of ligand treatment; for viability at 48 h: read-out: Number of viable cells after 48 h of ligand treatment
Procedure: Normal and tumor cell lines were seeded at 20000–40000 cells/cm^2 with 0.2 mL/cm^2 media and incubated for 48 h at 37°C, 6% CO2, 95% relative humidity. […] After 24 h and 48 h of incubation, cells were washed with 300 µl PBS or 0.02% EDTA, trypsinized, followed by harvesting at 37°C. 200 µl cell suspension was transferred into 1.5 ml microcentrifuge tube. To the cell suspension, 300 µl PBS followed by 500 µl of 0.4% trypan blue solution was added. To get the homogenised solution, the microcentrifuge tube was gently tapped for 5 min, 20 µl of cell suspension was loaded in to a chamber of the haemocytometer.

[4] = CRL-2115 cells (normal cell line), CRL-2115, 24 h
[5] = CRL-2115 cells (normal cell line), CRL-2115, 48 h
[6] = CRL-2120 cells (normal cell line), CRL-2120, 24 h
[7] = CRL-2120 cells (normal cell line), CRL-2120, 48 h
[8] = NCM-460 cells (normal cell line), NCM-460, 24 h
[9] = NCM-460 cells (normal cell line), NCM-460, 48 h

Row | SMILES | Number of days survived (B16F10 melanoma cells) | survival period of treated mice (B16F10 melanoma cells) | K1 x 10^-7 (HQF DNA d(TTAGGG)4) | K2 x 10^-5 (HQF DNA d(TTAGGG)4) | IC50 (B16F10 cells [1]) [µM] | Cells Alive (B16F10 cells [2]) [%] | Early apoptotic (B16F10 cells [2]) [%] | Late apoptotic (B16F10 cells [2]) [%] | Necrotic (B16F10 cells [2]) [%] | Total apoptotic cells (B16F10 cells [2]) [%] | viability at 24 h [3, 4] [%] | viability at 48 h [3, 5] [%] | viability at 24 h [3, 6] [%] | viability at 48 h [3, 7] [%] | viability at 24 h [3, 8] [%] | viability at 48 h [3, 9] [%] | Kd (HQF DNA d(TTAGGG)4) [µM]
1 | Cc1cn([C@H]2C[C@H](N=[N+]=[N-])[C@@H](CO)O2)c(=O)[nH]c1=O [Ligand L1, 1-(4-azido 5-(hydroxylmethyl)tetrahydrofuran-2-yl)-5-methyl pyrimidi-ne-2,4(1H,3H)-dione, reference compound] | 25 (±5) days | ~4 weeks | 0.72 (± 0.3) | 2.14 (± 0.2) | ~200 | 68.78 | 02.61 | 12.05 | 16.56 | 14.66 | 80 to 90 | 50 to 60 | 80 to 90 | 50 to 60 | 80 to 90 | 50 to 60 | 
2 | Cc1cn([C@H]2C[C@H](n3cc(-c4ccccc4)nn3)[C@@H](CO)O2)c(=O)[nH]c1=O [Ligand L2] | 31 (±4) days | ~5 weeks | 1.35 (± 0.1) | 2.61 (± 0.3) | ~125 | 22.88 | 04.82 | 19.07 | 53.23 | 23.89 | 80 to 90 | 50 to 60 | 80 to 90 | 50 to 60 | 80 to 90 | 50 to 60 | ~0.1
3 | Cc1cn([C@H]2C[C@H](n3cc(-c4ccc(Cl)cc4)nn3)[C@@H](CO)O2)c(=O)[nH]c1=O [Ligand L3, 1-(4-(4-(4-chlorophenly)-1H-1,2,3-triazole-1-yl)-5-(hydroxymethyl)tetrahydrofuran-2-yl)-5-methylpyrimidine-2,3(1H,3H)-dione] | 40 (±6) days | about 6 weeks |  | 2.82 (±0.5) | 50 | 17.79 | 20.99 | 60.26 | 00.96 | 81.25 | 80 to 90 | 50 to 60 | 80 to 90 | 50 to 60 | 80 to 90 | 50 to 60 | ~0.1
